The series can be described thus: Transmembrane screen (TS) for membrane affinity: drug solution added to membrane lipid Test system in 96 well plate, turbidity assessed visually or at 690 nm. The settings on record: higher turbidity with VP 805 than VP200 at 10:1 or lower lipid to drug ratios. Type of series: physicochemical.

Data on one molecule can be found in patent EP1410020B1, “TEST SYSTEM AND METHOD SUITABLE FOR SELECTING TEST MATERIALS AND FORMULATIONS” (PHARES PHARMACEUTICAL RESEARCH N.V., priority 2001, dated 2003).

Each structure is given as a SMILES string.

`Clc1ccccc1C(c1ccccc1)(c1ccccc1)n1ccnc1` [Clotrimazole]: the “relative affinity for VP 200 versus VP 805 (turbidity)” value was “higher affinity for VP 200 than VP 805”.
